Test systems include PC-3 prostate; TK-10 renal; LOX IMVI melanoma; DU-145 prostate; SF-268 CNS; MCF7 breast; IGROV1 ovarian; SR leukemia; OVCAR-4 ovarian; HOP-92 NSCLC.
What all share (experiment): NCI-60 cell line screen, 48 h

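Dose response: 5 concentrations. Exposure: 48 h. Format: 96-well plates. Endpoint: linear interpolation; highest concentration if not reached. GI50 = concentration required for 50% inhibition of growth. At the TGI there is no net growth.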

As to `COc1c2c3ccccc3nc-2n(C)c2ccccc12`, the GI50 is 5.25 µM in the assay with PC-3 prostate; 11.7 µM in the assay with TK-10 renal; 4.73 µM in the assay on LOX IMVI melanoma; 9.48 µM with DU-145 prostate; 10.2 µM with SF-268 CNS; 4.31 µM in the assay with MCF7 breast. Further, the results for the GI50 in the assay on IGROV1 ovarian and in the assay with SR leukemia were 24.3 µM and 7.1 µM, respectively. For the same compound, the TGI is 20.5 µM in the assay with PC-3 prostate; 58.5 µM in the assay on TK-10 renal; 26.3 µM in the assay with LOX IMVI melanoma; 45.5 µM in the assay on DU-145 prostate; 30.4 µM in the assay with SF-268 CNS; 33.1 µM in the assay with MCF7 breast. In addition, the TGI in the assay on IGROV1 ovarian and in the assay with SR leukemia was greater than 100 µM throughout.
On to `Cc1c(-c2ccccc2)c(=O)oc2ccc(Cl)cc12`, for which the TGI in the assay on TK-10 renal, with OVCAR-4 ovarian, in the assay on LOX IMVI melanoma, in the assay with SF-268 CNS, in the assay on IGROV1 ovarian and with HOP-92 NSCLC was greater than 100 µM in each case. This compound also gave a TGI with SR leukemia greater than 100 µM.
For `NC(=NCCCC1(c2ccccc2)CCCC1)Nc1ccc(Cl)cc1`, the GI50 was 1.6 µM with PC-3 prostate; 1.38 µM in the assay with TK-10 renal; 1.68 µM in the assay with OVCAR-4 ovarian; 1.58 µM in the assay with LOX IMVI melanoma; 1.8 µM in the assay with DU-145 prostate; 1.66 µM in the assay with SF-268 CNS. The GI50 in the assay on MCF7 breast is 1.65 µM; in the assay with HOP-92 NSCLC it was 1.36 µM; with SR leukemia it was 1.71 µM. For the same compound, the TGI with PC-3 prostate stood at 3.12 µM; with TK-10 renal, 2.75 µM; in the assay with OVCAR-4 ovarian, 3.17 µM; with LOX IMVI melanoma it was 2.93 µM; in the assay on DU-145 prostate, 3.29 µM; in the assay on SF-268 CNS, 3.35 µM. In addition, the TGI amounted to 3.19 µM in the assay with MCF7 breast, 2.85 µM in the assay on HOP-92 NSCLC and 4.24 µM with SR leukemia.
As for `CNC1C(O)C(OC2C(N)CC(N)C(OC3OC(CN)=CCC3N)C2O)OCC1(C)O` (stereo unspecified), the TGI with PC-3 prostate, in the assay on LOX IMVI melanoma, with DU-145 prostate, in the assay with SF-268 CNS, with MCF7 breast and in the assay on IGROV1 ovarian was greater than 100 µM each time. The TGI with HOP-92 NSCLC and in the assay on SR leukemia was greater than 100 µM in each case.
Turning to `CCCCCCCCCCCCNC(=O)[C@H]1CSC(c2cc3ccccc3s2)N1` (stereo partly specified), the GI50 is 1.3 µM in the assay on PC-3 prostate; 1.27 µM in the assay on TK-10 renal; 0.849 µM in the assay with OVCAR-4 ovarian; 0.534 µM in the assay with LOX IMVI melanoma; 1.21 µM in the assay on DU-145 prostate; 4.02 µM with MCF7 breast. Moreover, the results for the GI50 with IGROV1 ovarian, in the assay with HOP-92 NSCLC and in the assay on SR leukemia were 0.923 µM, 5.41 µM and 0.695 µM, respectively. In addition, the TGI in the assay with PC-3 prostate was 4.21 µM; in the assay on TK-10 renal it was 4.88 µM; in the assay with OVCAR-4 ovarian, 1.97 µM; in the assay on LOX IMVI melanoma, 1.05 µM; with DU-145 prostate, 4.19 µM; in the assay on MCF7 breast it was 9.15 µM. Moreover, the results for the TGI in the assay with IGROV1 ovarian, in the assay on HOP-92 NSCLC and in the assay with SR leukemia were 2.51 µM, 10.5 µM and 1.85 µM, respectively.
Regarding `Sc1ccc2ccccc2c1CNCc1ccccc1`, the TGI is greater than 100 µM in the assay with PC-3 prostate; greater than 100 µM in the assay with TK-10 renal; 40.6 µM in the assay with OVCAR-4 ovarian; 18.6 µM in the assay with LOX IMVI melanoma; 69.3 µM with DU-145 prostate; 30.3 µM in the assay on SF-268 CNS. The TGI in the assay on MCF7 breast was greater than 100 µM; with IGROV1 ovarian it was 6.97 µM; in the assay with SR leukemia, 15.4 µM.
`C=CCCOC(=O)CO[N+](=O)[O-]`: the TGI in the assay with TK-10 renal, with OVCAR-4 ovarian, with LOX IMVI melanoma, with SF-268 CNS, in the assay on IGROV1 ovarian and with SR leukemia was greater than 100 µM each time.
As for `C#Cc1c(C)c(/C=C/C(C)=C/C=C/C(C)=C/C(=O)OC)n(C)c1C`, the TGI with TK-10 renal, with OVCAR-4 ovarian, with LOX IMVI melanoma, in the assay with SF-268 CNS, with IGROV1 ovarian and with HOP-92 NSCLC was greater than 100 µM throughout. Also, in the assay with SR leukemia, the TGI was greater than 100 µM.
As to `CO/[N+]([O-])=C\C(=O)N/C=C/C(=O)O`, the TGI with PC-3 prostate, in the assay on OVCAR-4 ovarian, in the assay with LOX IMVI melanoma, with DU-145 prostate, with SF-268 CNS and in the assay with MCF7 breast was greater than 100 µM in each case. Also, the TGI in the assay with IGROV1 ovarian, in the assay with HOP-92 NSCLC and with SR leukemia was greater than 100 µM in each case.
As to `COc1cc(Br)c(CC2(C#N)c3ccccc3C3C(N2C(=O)c2ccccc2)C3(Cl)Cl)cc1OC` (stereo unspecified), the TGI with TK-10 renal, with LOX IMVI melanoma, in the assay with SF-268 CNS, in the assay on IGROV1 ovarian, in the assay on HOP-92 NSCLC and with SR leukemia was greater than 65.5 µM each time.
Regarding `CCOC(=O)Cc1nc2ccccc2s1`, the TGI is 55 µM with TK-10 renal; greater than 10 µM in the assay with OVCAR-4 ovarian; 32.4 µM in the assay with LOX IMVI melanoma; 39.2 µM with SF-268 CNS; greater than 100 µM in the assay with IGROV1 ovarian; 48.9 µM in the assay on SR leukemia.
Turning to `Cc1nnc(N=Nc2c(O)[nH]c3c(Cl)cc(Cl)cc23)n1N`, the TGI with TK-10 renal, with OVCAR-4 ovarian, in the assay on LOX IMVI melanoma, with SF-268 CNS, with IGROV1 ovarian and with HOP-92 NSCLC was greater than 100 µM in each case. The compound also came in with a TGI in the assay on SR leukemia greater than 100 µM.
With `CN(C)CCCNC(=O)c1ccc2oc3cc4ccccc4c(=O)n3c2c1`, the GI50 was greater than 50 µM in the assay with PC-3 prostate; 10.3 µM in the assay with TK-10 renal; 10.8 µM with LOX IMVI melanoma; 36.7 µM with DU-145 prostate; 15.4 µM in the assay with SF-268 CNS; greater than 50 µM in the assay with MCF7 breast. The figures for the GI50 in the assay on IGROV1 ovarian, in the assay on HOP-92 NSCLC and in the assay with SR leukemia were 18.4 µM, greater than 50 µM and 30.8 µM, respectively. Besides, the TGI in the assay on PC-3 prostate is greater than 50 µM; in the assay with TK-10 renal, greater than 50 µM; in the assay with LOX IMVI melanoma it was 27 µM; in the assay on DU-145 prostate, greater than 50 µM; in the assay on SF-268 CNS, greater than 50 µM; in the assay on MCF7 breast it was greater than 50 µM. The TGI with IGROV1 ovarian, in the assay on HOP-92 NSCLC and with SR leukemia was greater than 50 µM throughout.
As to `O=C(Cc1nc2ccccc2s1)Nc1ccc(Cl)cc1`, the TGI in the assay with TK-10 renal, with OVCAR-4 ovarian, in the assay on LOX IMVI melanoma, in the assay on SF-268 CNS, in the assay with IGROV1 ovarian and in the assay on SR leukemia was greater than 100 µM throughout.

The values are drawn from PubChem BioAssay (NCI).
